Data as given in US20190133997A1, “ARTEMISININ ANALOG, AND USE, METHOD, AND COMPOSITION FOR PROMOTING LIPID CATABOLISM AND IMPROVING SUGAR METABOLISM” (FUDAN UNIVERSITY, priority 2016, published 2019).

Experiments:
[1] = Intraperitoneal artemether, glucose metabolism in healthy lean mice; format: in vivo, Male C57BL/6J mice; settings: intraperitoneal 20 mg/kg twice a week, eight weeks
Experimental: (§1) The mice were breeded in the SPF animal laboratory of the Laboratory Animal Center of Fudan University at a room temperature of 21° C.-23° C. with a 12-hour light/dark cycle. When the mice were grown to 8-week old, they were randomly divided into a control group and an administration group, with 8 mice in each group. Artemether for intraperitoneal injection was stored at 4° C. in coconut oil at a storage concentration of 6 mg/ml (20 mMol/L), and protected from light. Mice in administration group were injected with artemether at a dose of 20 mg/kg weight, and mice in control group were injected with 100 μl coconut oil. Administration was twice a week for eight weeks.
The mice were fasted for 12-16 hours and injected intraperitoneally with glucose injection at a dose of […]. At 0 min, 30 min, 60 min, 90 min, and 120 min after injection, blood was collected from the tail vein, and blood glucose was measured with OneTouch ExtraEasy glucometer and OneTouch ExtraEasy blood glucose test strips and the results were recorded.
(§2) Insulin was injected intraperitoneally at a dose of 0.75 U/kg weight. At 0 min, 15 min, 30 min, 45 min and 60 min after injection, blood was collected from the tail vein, and blood glucose was measured.

[2] = test system: obese mice induced by high-fat diet; assay: Intraperitoneal artemether, random blood glucose, glucose and insulin tolerance in high-fat diet obese mice; format: in vivo, Male C57BL/6J mice; settings: intraperitoneal 20 mg/kg twice a week, eight weeks
Experimental: as §1, with “cycle. […]” for “cycle.”, “group. While the mice were fed with a high-fat diet, artemether was injected intraperitoneally.” for “group.”, “weight.” for “weight, and mice in control group were injected with 100 μl coconut oil.”
The mice were fasted for 12-16 hours and injected intraperitoneally with glucose injection at a dose of […]. At 0 min, 30 min, 60 min, 90 min, and 120 min after injection, blood was collected from the tail vein, and blood glucose was measured with OneTouch ExtraEasy glucometer and OneTouch ExtraEasy blood glucose test strips and the results were recorded.
as §2
The mice were anesthetized with 10% chloral hydrate and blood was taken from the orbit. The whole blood was centrifuged at 300 rpm for 5 min at 4° C. Serum was taken and the blood glucose levels were measured by automatic biochemical analyzer and calibrator for blood glucose Cfas and kit (Roche).

[3] = test system: high fat-fed mice; assay: Intraperitoneal artemether, weight gain induced by high-fat diet; format: in vivo, Male C57BL/6J mice; settings: intraperitoneal 20 mg/kg twice a week, eight weeks
Experimental: as §1, with “cycle. […]” for “cycle.”, “group. While the mice were fed with a high-fat diet, artemether was injected intraperitoneally.” for “group.”, “weight.” for “weight, and mice in control group were injected with 100 μl coconut oil.”, “weeks, and the weight of the mice was recorded weekly.” for “weeks.”

[4] = test system: SVF primary preadipocyte; assay: Artemether on differentiation of Stromal Vascular Fraction (SVF) primary preadipocytes (morphology, Western blot); format: cell-based, mice
Experimental: Inguinal fat of male mice was cut into pieces, treated with collagenase at 37° C. for 15 min, and centrifuged at 250 rpm for 10 min. The pellet was resuspended in F12/DMEM medium. 2.5×10^5 cells were taken and seeded in a 3.5 cm culture dish, which was pretreated with 1 ml polylysine for 30 min. Two days after cell contact inhibition (defined as Day 0 of differentiation), induction was performed according to adipocyte differentiation protocol as follows: two days after induction with F12/DMEM comprising 10% fetal bovine serum, 0.5 mMol/L Mix, 1 μMol/L Dex, 5 μg/ml insulin, and 1 μMol/L rosiglitazone; the culture was continued for 2 days with DMEM/F12 comprising 10% fetal bovine serum, […] insulin and 1 μMol/L rosiglitazone; thereafter, DMEM/F12 medium containing 10% fetal bovine serum was replaced every other day until the cells differentiated to Day 8.
On Day 0 of differentiation, SVF was treated with different concentrations of artemether ([…]), then fresh medium was replaced, and the corresponding concentration of artemether was added until the cells differentiated to mature.
The method for extracting total SVF protein was the same as 2.4.3, Western blot method and catalog number of antibody was the same as 2.4.4.

[5] = Intraperitoneal artemether, food intake of mice on normal and high-fat diet; format: in vivo, Male C57BL/6J mice; settings: intraperitoneal 20 mg/kg
Experimental: The mice were breeded in the SPF animal laboratory of the Laboratory Animal Center of Fudan University at a room temperature of 21° C.-23° C. with a 12-hour light/dark cycle. When the mice were grown to 8-week old, they were randomly divided into four groups, a high-fat control group, a high-fat administration group, a normal administration group, and a normal control group, with 8 mice in each group. Administration groups (high-fat and normal diet) were injected intraperitoneally with artemether. Artemether for intraperitoneal injection was stored at 4° C. in coconut oil at a storage concentration of 6 mg/ml (20 mMol/L), and protected from light. Mice in administration group were injected with artemether at a dose of 20 mg/kg weight, and mice in control group were injected with 100 μl coconut oil. The diet was weighed weekly and the diet consumption of mice in each group was recorded.

[6] = test system: ob/ob mice; assay: Intraperitoneal artemether, fatty liver in diabetic ob/ob mice; format: in vivo, Male ob/ob mice; settings: intraperitoneal 20 mg/kg twice a week, eight weeks
Experimental: Ob/ob mice were breeded in the SPF animal laboratory of the Laboratory Animal Center of Fudan University at a room temperature of 21° C.-23° C. with a 12-hour light/dark cycle. When the mice were grown to 4-week old, they were randomly divided into a control group and an administration group, with 4 mice in each group. Mice in administration group were injected intraperitoneally with artemether. Artemether for intraperitoneal injection was stored at 4° C. in coconut oil at a storage concentration of 6 mg/ml (20 mMol/L), and protected from light. Ob/ob mice in administration group were injected with artemether at a dose of 20 mg/kg weight. Administration was twice a week for eight weeks. The mice were sacrificed by cervical dislocation, and liver tissues of mice were removed, fixed and paraffin embedded. The histological analysis was commissioned by Shanghai Saige Biotech Co., Ltd.

[7] = SVF, artemether 5, 10, 15 Mol/L, Western Blot

Compound: CO[C@H]1O[C@@H]2O[C@@]3(C)CC[C@H]4[C@H](C)CC[C@@H]([C@H]1C)[C@@]24OO3 [artemether]
- glucose tolerance curve [1]: did not differ from that of mice in control group
- insulin tolerance curve [1]: did not differ from that of mice in control group
- glucose tolerance [2]: significantly better than that of mice in control group
- insulin sensitivity [2]: significantly better than that of mice in control group
- random blood glucose [2]: significantly lower than that of mice in control group
- weight gain of mice [3]: significantly slower than that of mice in control group
- weight of mice ([3]; statistically different after three weeks): significantly lower than that of mice in control group
- expression level of PGC1α [4, 7]: gradually increase with the increase of artemether concentration
- expression level of PRDM16 [4, 7]: gradually increase with the increase of artemether concentration
- expression level of UCP1 [4, 7]: gradually increase with the increase of artemether concentration
- cell morphology of SVF primary preadipocyte ([4]; artemether 5, 10, 15 Mol/L during differentiation, vs standard differentiated control cells, concentration-dependent tendency): smaller in size, with characteristics of multi-cavity small lipid droplets
- diet consumption of mice ([5]; high-fat groups): substantially the same as that of mice in control group
- anorexia nervosa ([5]; normal diet and high fat diet): did not cause anorexia nervosa
- diet consumption of mice ([5]; normal groups): not different from that of mice in control group
- fatty liver of ob/ob mice (HE staining) [6]: significantly relieved
